Measured values reported in ChEMBL document CHEMBL1914295, “Synthesis and biological evaluation of some novel triazol-3-ones as antimicrobial agents” (2011).

Key:
Type in all cases: functional
Conditions in all cases: read-out: IZ
[1] = tested on: Bacillus subtilis; assay: Antibacterial activity against Bacillus subtilis at 100 ug/ml after 24 hrs by disc diffusion method
[2] = tested on: Klebsiella pneumoniae; assay: Antibacterial activity against Klebsiella pneumoniae at 100 ug/ml after 24 hrs by disc diffusion method
[3] = tested on: Escherichia coli; assay: Antibacterial activity against Escherichia coli at 200 ug/ml after 24 hrs by disc diffusion method
[4] = tested on: Bacillus subtilis; assay: Antibacterial activity against Bacillus subtilis at 200 ug/ml after 24 hrs by disc diffusion method
[5] = tested on: Klebsiella pneumoniae; assay: Antibacterial activity against Klebsiella pneumoniae at 200 ug/ml after 24 hrs by disc diffusion method
[6] = tested on: Fusarium solani; assay: Antifungal activity against Fusarium solani at 100 ug/ml after 48 hrs by disc diffusion method
[7] = tested on: Aspergillus niger; assay: Antifungal activity against Aspergillus niger at 100 ug/ml after 48 hrs by disc diffusion method
[8] = tested on: Staphylococcus aureus; assay: Antibacterial activity against Staphylococcus aureus at 100 ug/ml after 24 hrs by disc diffusion method
[9] = tested on: Aspergillus niger; assay: Antifungal activity against Aspergillus niger at 200 ug/ml after 48 hrs by disc diffusion method
[10] = tested on: Escherichia coli; assay: Antibacterial activity against Escherichia coli at 100 ug/ml after 24 hrs by disc diffusion method
[11] = tested on: Candida albicans; assay: Antifungal activity against Candida albicans at 100 ug/ml after 48 hrs by disc diffusion method
[12] = tested on: Candida albicans; assay: Antifungal activity against Candida albicans at 200 ug/ml after 48 hrs by disc diffusion method
[13] = tested on: Fusarium solani; assay: Antifungal activity against Fusarium solani at 200 ug/ml after 48 hrs by disc diffusion method
[14] = tested on: Staphylococcus aureus; assay: Antibacterial activity against Staphylococcus aureus at 200 ug/ml after 24 hrs by disc diffusion method

Structure (SMILES)	zone of inhibition at 100 µg/mL [1] [mm]	zone of inhibition at 100 µg/mL [2] [mm]	zone of inhibition at 200 µg/mL [3] [mm]	zone of inhibition at 200 µg/mL [4] [mm]	zone of inhibition at 200 µg/mL [5] [mm]	zone of inhibition at 100 µg/mL [6] [mm]	zone of inhibition at 100 µg/mL [7] [mm]	zone of inhibition at 100 µg/mL [8] [mm]	zone of inhibition at 200 µg/mL [9] [mm]	zone of inhibition at 100 µg/mL [10] [mm]	zone of inhibition at 100 µg/mL [11] [mm]	zone of inhibition at 200 µg/mL [12] [mm]	zone of inhibition at 200 µg/mL [13] [mm]	zone of inhibition at 200 µg/mL [14] [mm]
COCCCn1ncn(-c2nc(-c3ccsc3)cs2)c1=O	23	25	28	26	28	34	26	24	28	24	24	28	36	26
COCCCn1ncn(-c2nc3c(s2)C(C)Sc2sccc2-3)c1=O (stereo not given)	31	21	25	33	24	39	37	23	41	22	36	39	44	28
N#CCn1ncn(-c2nc(-c3ccsc3)cs2)c1=O	23	16	29	26	21	28	27	28	29	26	28	32	34	31
CCn1ncn(-c2nc(-c3ccsc3)cs2)c1=O	21	26	29	27	28	29	21	24	24	23	23	29	32	32
CC1Sc2sccc2-c2nc(-n3cn[nH]c3=O)sc21 (stereo not given)	20	17	20	23	20	22	26	18	29	15	25	28	24	21
CC1Sc2sccc2-c2nc(-n3cnn(C(C)C)c3=O)sc21 (stereo not given)	13	14	18	15	16	17	17	14	22	15	16	21	19	16
CC(C)Cn1ncn(-c2nc3c(s2)C(C)Sc2sccc2-3)c1=O (stereo not given)	13	10	14	16	12	16	16	12	18	12	17	21	20	15
O=C(N[C@H](CO)[C@H](O)c1ccc([N+](=O)[O-])cc1)C(Cl)Cl [CHLORAMPHENICOL]	38	42	44	41	45			35		40				39
CC(=O)N1CCN(c2ccc(OCC3COC(Cn4ccnc4)(c4ccc(Cl)cc4Cl)O3)cc2)CC1 (stereo not given) [KETOCONAZOLE]						38	41		44		36	39	42	
CC1Sc2sccc2-c2nc(-n3cnn(C)c3=O)sc21 (stereo not given)	16	16	21	19	19	24	20	14	23	18	22	24	26	16
CC(C)n1ncn(-c2nc(-c3ccsc3)cs2)c1=O	20	26	24	23	29	27	30	25	33	22	22	24	29	27
CC1Sc2sccc2-c2nc(-n3cnn(CC#N)c3=O)sc21 (stereo not given)	15	11	13	18	14	15	16	13	19	11	14	18	18	17
O=c1[nH]ncn1-c1nc(-c2ccsc2)cs1	27	22	26	29	26	32	34	25	39	24	35	38	37	28
CC(C)Cn1ncn(-c2nc(-c3ccsc3)cs2)c1=O	16	15	21	18	18	26	26	16	27	17	17	21	30	20
CCn1ncn(-c2nc3c(s2)C(C)Sc2sccc2-3)c1=O (stereo not given)	28	24	27	31	26	28	23	25	26	22	26	29	31	29
Cn1ncn(-c2nc(-c3ccsc3)cs2)c1=O	34	26	25	36	28	40	39	32	42	23	36	40	43	35
